From patent publication US20160271114A1, “Composition for preventing or treating bacterial infectious disease comprising phospholipase D2 inhibitor” (RESEARCH & BUSINESS FOUNDATION SUNGKYUNKWAN UNIVERSITY, priority 2015, published 2016)

Experiments:
PLD2 knockout (KO) mice = experiment: Survival rate of PLD2 knockout (KO) mice after CLP surgery with CXCR2 antagonist treatment; assay type: in vivo; conditions: treated with the CXCR2 antagonist, FIG. 21
Protocol: (§1) C57Bl/6 mice were obtained from Orient Bio (Seongnam, Korea). PLD2 knockout (KO) mice were prepared by the method described in a previous study (Ghim, J., J. S. Moon, C. S. Lee, J. Lee, P. Song, A. Lee, J. H. Jang, D. Kim, J. H. Yoon, Y. J. Koh, C. Chelakkot, B. J. Kang, J. M. Kim, K. L. Kim, Y. R. Yang, Y. Kim, S. H. Kim, D. Hwang, P. G. Suh, G. Y. Koh, Y. Y. Kong, and S. H. Ryu, 2014, “Endothelial deletion of phospholipase D2 reduces hypoxic response and pathological angiogenesis,” Arterioscler. Thromb. Vasc. Biol., 34:1697-1703.) All experiments involving animals received the approval of the Institutional Review Committee for Animal Care and Use at the medical school of Sungkyunkwan University. Cecal ligation and puncture (CLP) sepsis models were prepared by the method described in a previous study (Kim, S. D., H. Y. Lee, J. W. Shim, H. J. Kim, Y. H. Yoo, J. S. Park, S. H. Baek, B. A. Zabel, and Y. S. Bae, 2011, “Activation of CXCR2 by extracellular matrix degradation product acetylated Pro-Gly-Pro has therapeutic effects against sepsis,” Am. J. Respir. Crit. Care Med., 184:243-251.) That is, mice were anesthetized with 50 mg/kg of Zoletil and 10 mg/kg of Rompun through intraperitoneal injection, and an abdominal midline incision was made to expose the cecum. […]

[1] = tested on: neutrophils isolated from the bone marrow of WT mice; experiment: CXCL2-induced chemotactic migration of LPS-stimulated neutrophils; assay type: cell-based; conditions: LPS 1 μg/ml, FIG. 20B
GRK2 = experiment: LPS-induced GRK2 level in neutrophils (western blotting); assay type: cell-based, mice; conditions: WT neutrophils, LPS 1 μg/ml; CAY10594 at 10 μM; FIG. 18B, FIG. 19
Protocol: First, neutrophils were isolated from the bone marrow of WT or PLD2 knockout (KO) mice and stimulated with 1 μg/ml of LPS for 1 hour, and then GRK2 levels were analyzed by western blotting.
Afterward, neutrophils isolated from the bone marrow of the WT mice were cultured with 10 μM of a vehicle (0.5% Tween 80 in PBS) or a PLD2 inhibitor (CAY10594) before being cultured with LPS (1 μg/ml), and then GRK2 levels were analyzed by western blotting.
The control of LPS-induced GRK2 expression by an inhibitor for an intracellular signaling pathway (BAY11-7082) was analyzed by western blotting.

CXCR2 = CXCR2 surface expression in LPS-stimulated neutrophils (flow cytometry); assay type: cell-based, mice; conditions: WT neutrophils, LPS 1 μg/ml; FIG. 17D, FIG. 20A
[2] = tested on: neutrophils isolated from the bone marrow of the WT mice; experiment: NET formation in ionomycin-stimulated neutrophils (SYTOX Green staining); assay type: cell-based; conditions: 10 μM, then 5 μM ionomycin, FIG. 10B
Protocol: Neutrophils were isolated from the bone marrow of the WT or PLD2 knockout (KO) mice. More particularly, bone marrow cells were isolated from a femur and a tibia using an HBSS-EDTA solvent. A cell suspension was centrifuged at 400 g for 10 minutes, resuspended cells were loaded onto 52%, 69%, and 78% Percoll gradients, and centrifuged at 1500 g for 30 minutes without breaking. The cells were isolated on a 69%/78% interface layer, and RBCs were removed by hypotonic lysis. 95% or more of the isolated cells were identified to be Ly6G-positive using a flow cytometer. The isolated neutrophils (1×10^5 cells) were seeded on 0.001% poly-lysine-coated 12-mm cover slips of 24-well plates, and stimulated with 5 μM ionomycin. Afterward, the cells were fixed with 4% paraformaldehyde and stained by SYTOX Green nucleic acid staining (5 μM). The NET was visualized using a Zeiss Axiovert fluorescent microscope (Zeiss, Oberkochen, Germany), and images were taken by a Nikon Digital camera.
Additionally, to confirm the variations of NET formation when a PLD2 inhibitor was treated, neutrophils isolated from the bone marrow of the WT mice were cultured with 10 μM of a vehicle (0.5% Tween 80 in PBS) or a PLD2 inhibitor (CAY10594), and then stimulated with 5 μM ionomycin.

[3] = tested on: spleen cells isolated from the WT mice; experiment: LPS-induced inflammatory cytokine/chemokine production in spleen cells (ELISA); assay type: cell-based; conditions: 10 μM for 30 minutes before LPS (1 μg/ml) for 24 hours; compared with vehicle; FIG. 5B
Protocol: Spleen cells (3×10^6 cells/0.3 ml) isolated from WT or PLD2 knockout (KO) mice were cultured in RPMI 1640 medium containing 5% fetal bovine serum (FBS) in 96-well plates and placed in a 5% CO2 incubator at 37° C. Afterward, the spleen cells were incubated with LPS (1 μg/ml) for 24 hours, and the expression of cytokines and chemokines in the spleen cells was measured by ELISA (e-Bioscience, San Diego, Calif.).
Additionally, to examine the effect of a PLD2 inhibitor on cytokine and chemokine production, before additional culturing with LPS (1 μg/ml) for 24 hours, the spleen cells isolated from the WT mice were cultured with 10 μM of a vehicle (0.5% Tween 80 in PBS) or a PLD2 inhibitor (CAY10594) for 30 minutes. A cell-free supernatant was collected and centrifuged, and the cytokines and the chemokines were detected by ELISA (e-Bioscience, San Diego, Calif.) according to the manufacturer's instructions.

CLP mice = experiment: Survival rate in CLP-induced sepsis models, WT mice; assay type: in vivo; conditions: WT mice after CLP surgery; 10 mg/kg subcutaneous at 2, 14, 26 and 38 hours; monitored for 10 days; FIG. 1B
Protocol: as §1

WT neutrophils = experiment: Ionomycin-induced intracellular calcium mobilization (Fura-2/AM); assay type: cell-based, mice; conditions: 10 μM before 5 μM ionomycin, FIG. 15
Protocol: Subsequently, for individual analysis, the cells were aliquoted (2×10^6 cells/1 ml of Locke's solution containing 154 mM NaCl, 5.6 mM KCl, 1.2 mM MgCl2, 5 mM HEPES [pH 7.3], 10 mM glucose, and 2 mM CaCl2). Afterward, the cells were stimulated with 5 μM ionomycin. Meanwhile, to check the case of the treatment with a PLD2 inhibitor, the cells aliquoted from the WT mouse were cultured with 10 μM of a vehicle (0.5% Tween 80 in PBS) or a PLD2 inhibitor (CAY10594) before being stimulated with ionomycin. A fluorescence change at an emission wavelength of 500 nm was measured using an RF-5301PC spectrofluorophotometer (Shimadzu Instruments Inc., Kyoto, Japan) at excitation wavelengths of 340 nm and 380 nm A [Ca^2+]i increase causes an increase in the fluorescence ratio at an excitation efficiency of 340 to 380 nm, and [Ca^2+]i was calculated using the fluorescence ratio according to Equation 5 of Grynkiewicz et al (Grynkiewicz et al., 1985).

SMILES | survival of PLD2 knockout (KO) mice after CLP surgery (PLD2 knockout (KO) mice) | CXCL2-induced chemotactic migration of the neutrophils by LPS stimulation [1] | upregulation of LPS-induced GRK2 / LPS-induced GRK2 expression (GRK2) | downregulation of LPS-induced CXCR2 (CXCR2) | NET formation caused by ionomycin stimulation [2] | CCL5 secretion [3] | CXCL1 secretion [3] | IL-1β secretion [3] | IL-6 secretion [3] | TNF-α secretion [3] | survival rate (CLP mice) | ionomycin-induced intracellular calcium mobilization (WT neutrophils)
O=C(Nc1ccc([N+](=O)[O-])cc1O)Nc1ccccc1Br [SB225002] | all of the mice died |  |  |  |  |  |  |  |  |  |  | 
Cc1ccc(S(=O)(=O)/C=C/C#N)cc1 [BAY11-7082] |  | partially but significantly recovered | completely inhibited | significantly diminished |  |  |  |  |  |  |  | 
O=C(NCCN1CCC2(CC1)C(=O)NCN2c1ccccc1)c1ccc2ccccc2c1 [CAY10594, N-[2-(4-oxo-1-phenyl-1,3,8-triazaspiro[4,5]decan-8-yl)ethyl]-2-naphthalenecarboxamide] |  |  | blocked | recovered | increased | considerably decreased | considerably decreased | considerably decreased | considerably decreased | considerably decreased | 40% | improved
